“Also recorded” adds a separate entry of the source. Blank lines part the entries; values can stand above or below the molecule they belong to.
What was measured:
[1] = system: hESC line SA461; assay: hESC line transferred directly from MEF feeders to feeder-free culture without FGF, supplemented with EHNA; format: cell-based, human; conditions: passage 7, 10 uM EHNA, no exogenous FGF
Description: A culture of the hESC line SA461 was transferred from a supportive MEF feeder layer directly, using manual dissection, to standard feeder free conditions in the absence of exogenous FGF but supplemented with 10 uM EHNA. A control was also grown with neither FGF nor EHNA present. Cells were subsequently passaged by the standard trypsin feeder free technique. It was determined by passage 7 that the EHNA containing cultures were almost 100% positive for POU5F1 whereas positive staining in the cultures absent for FGF and EHNA was minimal (FIG. 8).

[2] = system: hESCs; assay: Directed monolayer neuronal differentiation with and without EHNA; format: cell-based, human
Description: […] RNA samples were taken at various time intervals and a variety of marker gene expression was measured using qRT-PCR.
In FIGS. 11a-d, the value of 1 was set to the level of expression in undifferentiated hES cells. In FIG. 12a, the value of 1 was set to the expression level in the untreated control samples.

[3] = system: SA121 hESCs; assay: General (monolayer) differentiation on matrigel in defined media, qRT-PCR of stem cell and differentiation markers after 14 days; format: cell-based, human; set-up: key to Full EHNA effect: those which maintained at least 50% of the level of NANOG-expression in comparison to EHNA and those that inhibited the expression of PAX6 to 50% or less than the value untreated controls were considered to have an EHNA-like effect; conditions: 14 days, qRT-PCR
Description: In order to ascertain the efficacy of the compounds of the present invention, each compound was tested to determine whether it can maintain the stem cell marker NANOG and/or block the differentiation marker PAX6 in the face of differentiating conditions in a manner similar to EHNA. Cells enzymatically passaged onto matrigel-coated dishes and grown for 2 weeks in defined media with or without (control) compound addition were analysed by qRT-PCR to determine the level of NANOG and PAX6 expression.
For general differentiation experiments cells were passaged with trypsin onto matrigel coated twelve-well dishes in the fully supportive media (see above). The media was then changed to defined media 24 h later and any experimental component was first added at this point. The media and experimental supplement were changed daily.
Cells were routinely harvested for qRT-PCR analysis 14 days after the first addition of the experimental compound.
Total RNA was extracted using QIAGEN RNeasy kits (Qiagen Inc, Valencia, Calif., http://www.qiagen.com) and DNaseI treatment was performed using Turbo DNA-Free (Ambion). The absence of genomic DNA was confirmed by quantitative PCR (qPCR) (see below) using glyceraldehyde-3-phosphate dehydrogenase (GAPDH) Taqman primers and probe (MWG). cDNA was synthesized with 2 μg total RNA in 20 μl using Superscript II according to manufacturers' instructions ((Carlsbad, Calif., http://www.Invitrogen.com)). For qPCR, cDNAs were diluted 1 in 60 and 5 μl used per sample in a 15 μl total reaction volume. Platinum pPCR supermix UDG with Rox (Carlsbad, Calif., http://www.Invitrogen.com) was used according to the manufacturer's instructions using an Applied Biosystems 7300 real time PCR system (Applied Biosystems, Warrington, UK, http://europe.appliedbiosystems.com). Each reaction contained 0.6 μM of each primer and Taqman probe (MWG). Biological and technical replicates were each performed in triplicate for each sample, standardised to the GAPDH housekeeping gene and relative expression values were calculated using the 7300 system SDS software (Applied Biosystems, Warrington, UK, http://europe.appliedbiosystems.com).
Cells were enzymatically passaged onto matrigel-coated dishes and grown for 2 weeks in defined media. After 14 days, qRT-PCR was utilised to analyse the expression of a variety of markers of pluripotency and differentiation. In the graphs in FIG. 9 the value 1 was set to the expression level of the gene in undifferentiated SA121 hESCs.
Cells were enzymatically passaged onto matrigel-coated dishes and grown for 2 weeks in defined media (1× confluent T25 tissue culture flask was passaged to 2×12 well dishes) with or without (control) compound addition. All compounds were added at 10 uM and each was performed in triplicate. Media and compounds were changed every 48 hours. After 14 days RNA was isolated and qRT-PCR was utilised to analyse the expression of NANOG and PAX6. The results are illustrated in FIGS. 13 to 17.
In the graphs in FIGS. 13, 14 15, 16 and 17 the value 1 was set relative to the expression level of the gene in the control (no compound) samples. […] This experiment allowed the effect of the EHNA-related compounds to be measured directly in comparison to EHNA. […] Those which had on effect, to these levels, on either PAX6 or NANOG were considered to have a partial-EHNA effect.

[4] = system: hESCs (SA121); assay: Feeder-free culture of hESCs without exogenous FGF, supplemented with EHNA; format: cell-based, human
Description: Cells were grown on fibronectin coated dishes. A fibronectin (Calbiochem) solution (0.1 mg/ml) (diluted in PBS) is used to coat the tissue culture dishes for 15 mins at 37 C.
The fully supportive media used to culture the stem cells was a 1:1 mixture of defined media (see below) and conditioned vitrohES. vitrohES media was conditioned for 24 hours on a layer of mitotically inactivated mouse embryonic fibroblasts plated at 4×10^5 cells/ml of conditioned media. Passaging was performed first by removing the media from the cells and washing with PBS. Trypsin (sourced from Invitrogen) was added to the cells and incubated for 1-2 mins at room temperature. Fresh media was added to neutralize the cells and then gently scraped off using a cell scraper and passaged 1 in 4 to fibronectin coated dishes.
After washing with PBS, cells were fixed in 4% paraformaldehyde (Sigma) for 10 mins at room temperature and washed again. Cells were then permeabilised in ethanol for 2 minutes. Blocking was performed in 10% Goat serum (sigma)/PBS (Invitrogen) for one hour at room temperature. The following primary antibodies (dilutions in brackets) were then incubated for 1 hour at room temperature diluted in blocking solution: mouse anti-POU5F1 (Santa cruz) (1:250), rabbit anti-PAX6 (Chemicon) (1:1000), mouse anti B-tubulin III (Sigma) (1:1000), mouse anti-Alpha-feta-protein (AFP) (Sigma) (1:400), mouse anti-muscle-specific actin (SMA) (Dako) (1:50), SSEA1 (Hybdridoma bank University of IOWA) (1:5), SSEA3 (Hybdridoma bank University of IOWA) (1:5), SSEA4 (Hybdridoma bank. University of IOWA) (1:5), Tra1-60 (Santa cruz) (1:200) and Tra1-80 (Santa Cruz) (1:200). […] All immunofluorescence was visualised and captures using Zeiss Axiovision image analysis system (http://www.ziess.com).
(§1) hESCs (SA121) were placed into standard feeder free conditions without exogenous FGF (including conditioned media made without addition of exogenous FGF) but supplemented with 10 μM EHNA. Cells were initially seeded from a trypsin passage of a standard, FGF containing, feeder free culture (passage 33 post feeder free; p100 total).
Controls were also set up without FGF or EHNA. Three lines were set up to grow independently for each condition and these were routinely passaged using trypsin as normal. Passaging was usually a 1 in 4 split approximately every 4 days.
as §1, with “A further culture of SA121 was transferred to” for “hESCs (SA121) were placed into”, “7” for “33”, “p 48” for “p100”

[5] = Solubility in 5% DMSO-water; format: physicochemical
[6] = 10 passages, immunofluorescence

Structure (SMILES): CCCCCC[C@@H]([C@@H](C)O)n1cnc2c(N)ncnc21.Cl [EHNA, erythro-9-(2-Hydroxy-3-nonyl)adenine, HCl]
cells positive for POU5F1 [1]: ~100% | cells staining positive for POU5F1 versus untreated differentiation ([2]; 4 weeks (28 days) of neuronal differentiation): At least 10 times | PAX6 levels relative to the control differentiation ([2]; 4 weeks of differentiation (passage at 2 weeks)): > 50% | levels of the stem cells markers NANOG and ZFP42 ([2]; 4 weeks of differentiation, versus control): considerably higher levels | effect on PAX6 / neuronal marker expression ([2]; early neuronal differentiation, qRT-PCR, HCl): delays the onset and reduces the amount of neuronal marker expression; also recorded: delay or reduce the level of expression | expression levels of the stem cell genes POU5F1, NANOG and ZFP42 ([2]; first 2 weeks of neuronal differentiation, qRT-PCR): maintained largely at undifferentiated levels | Full EHNA effect ([3]; 10 uM, NANOG at least 50% of EHNA level and PAX6 50% or less of untreated control): X | SOX2 transcription in differentiating conditions ([3]; FIG. 9a): maintained transcription at the same level as seen in undifferentiated hESCs and the untreated samples | stem cell marker expression (NANOG, ZFP42, POU5F1) in differentiating conditions ([3]; FIG. 9a): distinctly inhibited the down-regulation of the stem cell markers NANOG, ZFP42 and POU5F1 | induction of other differentiation markers (AFP, CD34, Brachyury, PECAM1, CDX2 and FOXA2) ([3]; data not shown): No induction of these markers | NANOG expression in differentiating conditions ([3]; relative to untreated control): clearly maintains a higher level of NANOG than the untreated control | PAX6 expression in differentiating conditions ([3]; HCl): inhibited the rise of PAX6 expression levels; also recorded: inhibits the onset of the differentiation marker PAX6 | maintenance of hESCs in an undifferentiated state in the absence of FGF ([4]; 10 μM EHNA, feeder free, no exogenous FGF): can be maintained in an undifferentiated state in the absence of FGF if EHNA is present | differentiation marker SSEA1 [4, 6]: negative | stem-cell markers SSEA3, SSEA4, TRA-160, TRA-180 and OCT4 [4, 6]: positive | expression of the stem cell markers NANOG and POU5F1 in the absence of FGF ([4]; FIG. 3): maintained | ability to differentiate to all three germ layers ([4]; after at least 22 passages without FGF with EHNA): can differentiate to all three germ layers | karyotype ([4]; passage 21, at least one replicate line): karyotypically normal | POU5F1 staining ([4]; passage 21, immunofluorescence): all positive for POU5F1 | hESC gene expression (TLDA) ([4]; passage 30, compared with hESCs grown with FGF without EHNA): appropriate hESC gene expression

solubility in 5% DMSO-water [5]: poor solubility
Structure (SMILES): CCCCCCCCCCn1cc2c(N)ncnc2n1 [HWC-3, 2-decyl-2H-pyrazolo[3,4-d]pyrimidin-4-amine]

Source: patent US20120202287A1, “Stem Cell Culture Methods” (priority 2009, published 2012)
